From BindingDB's records for doi:10.1021/jm00133a021 (1981)
pIC50: −log10 of the molar value.

These molecules were tested against Angiotensin-converting enzyme (ACE1) (assay: Concentration required for 50% inhibition of Angiotensin I converting enzyme).

Compound | pIC50
CCCC(C(=O)O)N1CCCC(CSC(C)=O)C1=O (configuration not stated) [2-(3-Acetylsulfanylmethyl-2-oxo-piperidin-1-yl)-pentanoic acid] | 4.52
CC(=O)SCC1CCCN(C(C)C(=O)O)C1=O (configuration not stated) [2-(3-Acetylsulfanylmethyl-2-oxo-piperidin-1-yl)-propionic acid] | 4.46
O=C(O)CN1CCCC(CS)C1=O (configuration not stated) [(3-Mercaptomethyl-2-oxo-piperidin-1-yl)-acetic acid] | 6.00
CC(=O)SCC1CCCN(C(C(=O)O)c2ccccc2)C1=O (configuration not stated) [(3-Acetylsulfanylmethyl-2-oxo-piperidin-1-yl)-phenyl-acetic acid] | 4.72

Next, values leading:

pIC50 | Compound
4.00 | CC(=O)SCC1CCCN(CC(=O)O)C1=O (configuration not stated) [(3-Acetylsulfanylmethyl-2-oxo-piperidin-1-yl)-acetic acid]
5.43 | O=C(O)CN1CCC(CS)C1=O (configuration not stated) [(3-Mercaptomethyl-2-oxo-pyrrolidin-1-yl)-acetic acid]
4.48 | CC(=O)SCC1CCN(CC(=O)O)C1=O (configuration not stated) [(3-Acetylsulfanylmethyl-2-oxo-pyrrolidin-1-yl)-acetic acid]
